One test deals with CaCo-2 cells. Briefly: Cytostatic Action Test on Various Cells (XTT method). Format: cell-based. Here is the method:
The cytostatic measurement of the various cancer cells were conducted according to the method of the U.S. National Cancer Institute (NCI). Adhesive cells such as CaCo-2 and HepG2 were adjusted in each of the specified culture mediums at 0.5×10^5 cells/ml concentration and pipetted into a 96 well-plate (Costar3695) in an amount of 100 μl/well. The cells were cultured under the conditions of at 37° C. in 5% CO2 atmosphere for 24 hours to allow the cell adhesion, and then the numbers of each of the cells were determined by the XTT method to be recorded as the cell number of day 0 (C0days). After that, only the medium solutions were exchanged in the control groups, and culture mediums each containing the test samples adjusted to each of the specified concentrations were exchanged In the test sample dispensing groups, then the cells were cultured under the conditions of at 37° C. in 5% CO2 atmosphere for 72 hours. The numbers of each of the cells were determined by the XTT method to be recorded as the cell number of day 3 (C3days). Further, only the medium solutions were pipetted into the control groups and the test sample administration groups were adjusted to 5×10^5 cells/ml concentrations in each of the specified culture mediums containing the test samples adjusted to each of the specified concentrations, then pipetted into a 96 well-plate (Costar3695) in an amount of 100 μl/well. The cells were cultured under the condition of at 37° C. in 5% CO2 atmosphere for 72 hours, and the number of each of the cells (T3days) were determined in the same manner.
Cell proliferation rate (%) with respect to control groups=[(T3days
-C0days)/(C3days -C0days)]×100 Formula: 5
For orientation: Tetrazolium assays rely on reduction of a dye to a coloured formazan, in cell work by metabolically active cells.

In test [1] the test system is pain threshold of brewer's yeast inflamed hind paw. Kind of test: Analgesic Action Test (Randall et al.). Format: in vivo, SD rats. The note with it: 3 mg/kg oral, 3 hours. Here is the method:
SD rats (6 rats per group) fasted overnight were employed for the test. After the measurement of pain threshold values of the left and right hind paws twice using an analgesimeter, the rats were injected subcutaneously with 0.1 ml of 20% brewer's yeast solution at the plantar area of the right hind paw to elicit inflammation. Two hours after the elicitation of inflammation, the pain threshold values of the left and right hind paws were measured and, immediately after the measurement, the test samples were administered orally to the rats. Three hours after the administration, the pain threshold values of the left and right hind paws were measured. […] The dosage amount of each of the test samples was 3 mg/kg.
Pain threshold value rising rate (%)=((pain threshold value of 3 hours after drug administration-pain threshold value of 2 hours after yeast administration)/(pain threshold value before yeast administration-pain threshold value of 2 hours after yeast administration))×100
Pain threshold value fluctuation rate (%)=(1 -(pain threshold value of 3 hours after drug administration/pain threshold value of 2 hours after […]

The structures appear in SMILES notation.

With `Cc1cc(-c2ccc(F)cc2)c(-c2ccc(S(C)(=O)=O)cc2)[nH]1` [Preparation Example 1, 4-(4-fluorophenyl)-2-methyl-5-(4-methylsulfonylphenyl)-1H-pyrrole], the “cytostatic action” value in the test with CaCo-2 cells (CaCo-2 cells, colon cancer cells) is given as “demonstrated a cytostatic action with respect to CaCo-2 cells”. The IC50 with CaCo-2 cells (Homo sapiens, CaCo-2, 72 hours, XTT method, read-out: Cytostatic rate (IC50)) was 780 nM. For the same compound, the “Pain Threshold Value Fluctuation Rate” value in test [1] (Left Hind Paw (non-inflammatory paw)) amounted to 2.47%. For the same compound, the “Pain Threshold Value Rising Rate” value in test [1] (Right Hind Paw (inflammatory paw)) came out at 33.3%.

The IC50 is the concentration at which inhibition is half-maximal.

For the origin of these results see patent US6294568A, “5-arylpyrrole derivatives” (priority 1997, dated 2001).
